21 compounds from PubChem BioAssay AID504481 (NMMLSC, 2011) can be followed below.

Active and inactive are the calls of the source.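 Rule for the calls: active = fold change below 0.65 in a panel strain, matching the primary screen cutoff; inactive = the rest.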

The first test has as its system YCL025C. Nature of the test: GFP reporter expression in transducer deletion yeast, mechanism study for yeast TOR pathway modulator project, S. cerevisiae, transducer mutant strains, GFP-tagged proteins (AID 504481).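 Note: 1 = DMSO wells as ratio of mean channel GFP fluorescence.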 To be noted: S. cerevisiae transducer mutants, GFP-fusion expression, flow cytometry, 3 h.
Take `O=[N+]([O-])c1ccc(S(=O)(=O)c2cccc(C(F)(F)F)c2)nc1`: the fold change is 0.901 (inactive).
As for `CCSc1nnc(NC(=O)c2ccccn2)s1`, the fold change was 0.982 (inactive).
Same read-out and setting: next, `O=C(OCn1ncc(Br)c(Br)c1=O)c1c(F)cccc1F`: 0.921 (inactive); `Cc1ccc(S(=O)(=O)c2ncccc2[N+](=O)[O-])cc1`: 0.853 (inactive); `O=[N+]([O-])c1cc(O)c2ncccc2c1`: 0.835 (inactive).
As for `CCc1ccc(OCC(=O)NNC(=S)NC(=O)C2CC2)c(Br)c1`, the fold change is 1.03 (inactive).
Turning to `O=C1ON=C(c2ccccc2)/C1=C/c1ccco1`, the fold change was 0.866 (inactive).
For `Clc1ccc(N=c2ssnc2Cl)cc1`, the fold change is 0.846 (inactive).
`CC(C)(C)C(=O)NC(=S)NNC(=O)c1ccc(-c2ccccc2)cc1`: the fold change is 1.32 (inactive).
Take `Cn1ncc(S(=O)(=O)Cc2ccccc2)c(Cl)c1=O`: the fold change is 1.13 (inactive).
Consider `COc1ccc([N+](=O)[O-])c(S(=O)(=O)c2ccccc2)n1`, for which the fold change was 1.08 (inactive).
In the case of `CCOC(=O)c1c(C)oc2c1c(C(c1cccnc1)N1CCOCC1)c(O)c1ccccc12` (stereo not drawn), the fold change is 0.907 (inactive).
With `Cc1ccc(C(=O)NNC(=S)NC(=O)COc2ccccc2)cc1`, the fold change is 1 (inactive).
With `CC(=O)c1ccc(N2CCN(C(=O)c3ccc(Br)cc3)CC2)c(F)c1`, the fold change was 1.22 (inactive).
With `Cc1ccc(/C=C2/C(=O)ON=C2c2ccccc2)o1`, the fold change was 0.837 (inactive).
On to `COc1ccc([N+](=O)[O-])c(S(=O)(=O)c2ccc(Cl)cc2)n1`, for which the fold change is 1.31 (inactive).
Still for that read-out and setting: next, `O=C(Oc1c(Cl)cc(Cl)c2cccnc12)c1cccc([N+](=O)[O-])c1`: 1.16 (inactive).
Take `CCCCC(=O)NNC(=S)NC(=O)c1ccc(C)cc1`: the fold change is 1.12 (inactive).
Turning to `O=[N+]([O-])c1cc(Cl)c2cccnc2c1O`, the fold change is 1.27 (inactive).
On to `CC(Oc1ccc(Cl)cc1)C(=O)NNC(=S)NC(=O)c1ccco1` (stereo not drawn), for which the fold change is 0.906 (inactive).
Same read-out and setting: next, `O=C(CCc1ccccc1)NNC(=S)NC(=O)c1ccccc1`: 0.995 (inactive).

The test system of the next test is YNL142W. Described as above. As to conditions: S. cerevisiae transducer mutants, GFP-fusion expression, flow cytometry, 3 h.
In the case of `O=[N+]([O-])c1ccc(S(=O)(=O)c2cccc(C(F)(F)F)c2)nc1`, the fold change was 1.26 (inactive).
On to `CCSc1nnc(NC(=O)c2ccccn2)s1`, for which the fold change was 1.05 (inactive).
As for `O=C(OCn1ncc(Br)c(Br)c1=O)c1c(F)cccc1F`, the fold change was 0.911 (inactive).
On to `Cc1ccc(S(=O)(=O)c2ncccc2[N+](=O)[O-])cc1`, for which the fold change is 0.701 (inactive).
The same measure, in the same setting: the figure for `O=[N+]([O-])c1cc(O)c2ncccc2c1` is 0.761 (inactive); for `CCc1ccc(OCC(=O)NNC(=S)NC(=O)C2CC2)c(Br)c1` it is 1.15 (inactive); for `O=C1ON=C(c2ccccc2)/C1=C/c1ccco1` it is 1.09 (inactive).
For `Clc1ccc(N=c2ssnc2Cl)cc1`, the fold change is 0.957 (inactive).
On the same count and under the same terms, the figure for `CC(C)(C)C(=O)NC(=S)NNC(=O)c1ccc(-c2ccccc2)cc1` is 1.46 (inactive); for `Cn1ncc(S(=O)(=O)Cc2ccccc2)c(Cl)c1=O` it is 1.47 (inactive); for `COc1ccc([N+](=O)[O-])c(S(=O)(=O)c2ccccc2)n1` it is 0.958 (inactive).
For `CCOC(=O)c1c(C)oc2c1c(C(c1cccnc1)N1CCOCC1)c(O)c1ccccc12` (stereo not drawn), the fold change was 1.26 (inactive).
For the compound `Cc1ccc(C(=O)NNC(=S)NC(=O)COc2ccccc2)cc1`, the fold change is 1.08 (inactive).
In the case of `CC(=O)c1ccc(N2CCN(C(=O)c3ccc(Br)cc3)CC2)c(F)c1`, the fold change is 1.3 (inactive).
Same read-out and setting: the figure for `Cc1ccc(/C=C2/C(=O)ON=C2c2ccccc2)o1` is 1.23 (inactive); for `COc1ccc([N+](=O)[O-])c(S(=O)(=O)c2ccc(Cl)cc2)n1` it is 1.28 (inactive).
For the compound `O=C(Oc1c(Cl)cc(Cl)c2cccnc12)c1cccc([N+](=O)[O-])c1`, the fold change is 1.08 (inactive).
Same read-out and setting: the figure for `CCCCC(=O)NNC(=S)NC(=O)c1ccc(C)cc1` is 1.25 (inactive); for `O=[N+]([O-])c1cc(Cl)c2cccnc2c1O` it is 1.14 (inactive); for `CC(Oc1ccc(Cl)cc1)C(=O)NNC(=S)NC(=O)c1ccco1` (stereo not drawn) it is 1.33 (inactive).
Turning to `O=C(CCc1ccccc1)NNC(=S)NC(=O)c1ccccc1`, the fold change is 1.2 (inactive).

For a further test, the system named is YCR005C. The test is described as above. As to conditions: S. cerevisiae transducer mutants, GFP-fusion expression, flow cytometry, 3 h.
Regarding `O=[N+]([O-])c1ccc(S(=O)(=O)c2cccc(C(F)(F)F)c2)nc1`, the fold change was 1.32 (inactive).
As for `CCSc1nnc(NC(=O)c2ccccn2)s1`, the fold change was 0.897 (inactive).
The same measure, in the same setting: next, `O=C(OCn1ncc(Br)c(Br)c1=O)c1c(F)cccc1F`: 1.48 (inactive).
As for `Cc1ccc(S(=O)(=O)c2ncccc2[N+](=O)[O-])cc1`, the fold change is 0.87 (inactive).
Same read-out and setting: next, `O=[N+]([O-])c1cc(O)c2ncccc2c1`: 0.721 (inactive); `CCc1ccc(OCC(=O)NNC(=S)NC(=O)C2CC2)c(Br)c1`: 1.17 (inactive); `O=C1ON=C(c2ccccc2)/C1=C/c1ccco1`: 1.4 (inactive).
Still for that read-out and setting: next, `Clc1ccc(N=c2ssnc2Cl)cc1`: 0.981 (inactive).
With `CC(C)(C)C(=O)NC(=S)NNC(=O)c1ccc(-c2ccccc2)cc1`, the fold change was 1.2 (inactive).
Take `Cn1ncc(S(=O)(=O)Cc2ccccc2)c(Cl)c1=O`: the fold change was 1.24 (inactive).
For the compound `COc1ccc([N+](=O)[O-])c(S(=O)(=O)c2ccccc2)n1`, the fold change was 0.91 (inactive).
The same measure, in the same setting: the figure for `CCOC(=O)c1c(C)oc2c1c(C(c1cccnc1)N1CCOCC1)c(O)c1ccccc12` (stereo not drawn) is 1.27 (inactive); for `Cc1ccc(C(=O)NNC(=S)NC(=O)COc2ccccc2)cc1` it is 1.34 (inactive); for `CC(=O)c1ccc(N2CCN(C(=O)c3ccc(Br)cc3)CC2)c(F)c1` it is 1.72.
As for `Cc1ccc(/C=C2/C(=O)ON=C2c2ccccc2)o1`, the fold change is 1.47 (inactive).
Regarding `COc1ccc([N+](=O)[O-])c(S(=O)(=O)c2ccc(Cl)cc2)n1`, the fold change was 0.893 (inactive).
Regarding `O=C(Oc1c(Cl)cc(Cl)c2cccnc12)c1cccc([N+](=O)[O-])c1`, the fold change is 1.03 (inactive).
In the case of `CCCCC(=O)NNC(=S)NC(=O)c1ccc(C)cc1`, the fold change is 1.02 (inactive).
As to `O=[N+]([O-])c1cc(Cl)c2cccnc2c1O`, the fold change was 0.922 (inactive).
Take `CC(Oc1ccc(Cl)cc1)C(=O)NNC(=S)NC(=O)c1ccco1` (stereo not drawn): the fold change was 1.21 (inactive).
Turning to `O=C(CCc1ccccc1)NNC(=S)NC(=O)c1ccccc1`, the fold change was 1.32 (inactive).
